Reference: US8884101B2, “Method of gene introduction into Triticum plant using Agrobacterium, and a method of producing transformed Triticum plant” (priority 2009, dated 2014)

Test system: immature embryos of bread wheat (variety: Fielder)
Experiment: GUS gene expression in wheat immature embryos; effect of adding plant hormone to coculture medium (Example 9)
Format: cell-based, bread wheat (Triticum aestivum)
Details: 5 days resting culture; for degree of GUS gene expression relative to coculture medium not containing plant hormones (FIG. 5): 0.5 μM in coculture medium, 10 immature embryos per group; for degree of GUS gene expression relative to coculture medium not containing plant hormones (FIG. 6) / degree of GUS gene expression relative to coculture medium not containing plant hormones (FIG. 4): 5 μM in coculture medium; for degree of GUS gene expression relative to coculture medium not containing plant hormones (FIG. 6): 18 or 19 immature embryos per group; for degree of GUS gene expression relative to coculture medium not containing plant hormones (FIG. 4): 16 or 17 immature embryos per group
Procedure: Bread wheat (variety: Fielder) was cultivated in a greenhouse equipped with an air conditioner, and the immature embryos (size: 1.5 to 3.0 mm) of the bread wheat were aseptically collected on the 14th day after flowering and were washed once with an Inf liquid medium. Pretreatment (centrifugation at 15000 rpm for 10 min) was performed to enhance the efficiency of gene introduction in an Inf liquid medium. Agrobacterium strain EHA101 (pIG121Hm) was suspended at about 1.0×10^9 cfu/mL in an Inf liquid medium containing 100 μM acetosyringone to prepare an inoculation source. The inoculation source was added to the immature embryos, and the mixture was stirred for 30 sec, followed by leaving to stand at room temperature for 5 min. The immature embryos inoculated with Agrobacterium were placed onto a Co-Cul coculture medium containing 100 μM acetosyringone, 5 μM AgNO3, and 5 μM CuSO4 and also containing 5 μM kinetin or 4PU; 0.5 μM 2,4-D, dicamba, or picloram; or 5 μM 2,4-D, dicamba, or picloram in such a manner that the scutellum faced upward, and were cocultured at 23° C. in the dark. As a control, a Co-Cul coculture medium not containing any plant hormone was used.
On the 2nd day from the beginning of the coculture, the radicles, germs, and embryonic axes were excised using a scalpel and tweezers. The immature embryos were placed onto a resting medium (the composition is the same as that described in Example 1), followed by cultivation at 25° C. in the dark for 5 days. Subsequently, 10 to 19 immature embryos were collected from each group and were immersed in a 0.1 M phosphate buffer (pH 6.8) containing 0.1% Triton X-100 at 37° C. for 1 hr. The phosphate buffer was removed, and a phosphate buffer containing 1.0 mM 5-bromo-4-chloro-3-indolyl-β-D-glucuronic acid (X-gluc) and 20% methanol was added thereto. After treatment at 37° C. for 24 hr, the immature embryos in each group were evaluated for expression of the GUS gene in six grades: 4 (expressed in 75% or more of scutellum), 3 (expressed in 50% to 74% of scutellum), 2 (expressed in 25% to 49% of scutellum), 1 (expressed in 5% to 24% of scutellum), 0.5 (expressed in 1% to 4% of scutellum), and 0 (no expression).
A part of the immature embryos in each test group was harvested on the 5th day of the resting culture, and the GUS gene was expressed. The vertical axis in each of FIGS. 4, 5, and 6 represents the average of GUS gene expression by each immature embryo evaluated in six grades: 4 (expressed in 75% or more of scutellum), 3 (expressed in 50% to 74% of scutellum), 2 (expressed in 25% to 49% of scutellum), 1 (expressed in 5% to 24% of scutellum), 0.5 (expressed in 1% to 4% of scutellum), and 0 (no expression), that is, efficiency of gene introduction shown by expression of the GUS gene.

Row | SMILES | degree of GUS gene expression relative to coculture medium not containing plant hormones (FIG. 5) | degree of GUS gene expression relative to coculture medium not containing plant hormones (FIG. 6) | degree of GUS gene expression relative to coculture medium not containing plant hormones (FIG. 4)
1 | O=C(O)COc1ccc(Cl)cc1Cl [2,4-D, 2,4-dichlorophenoxyacetic acid] | equivalent to or slightly lower | slightly lower | 
2 | O=C(Nc1ccccc1)Nc1ccncc1 [4PU] |  |  | slightly lower
3 | c1coc(CNc2ncnc3[nH]cnc23)c1 [kinetin] |  |  | slightly lower
4 | COc1c(Cl)ccc(Cl)c1C(=O)O [dicamba] | equivalent to or slightly lower | slightly lower | 
5 | Nc1c(Cl)c(Cl)nc(C(=O)O)c1Cl [picloram] | equivalent to or slightly lower | slightly lower | 
